Results taken from PMC5155291 (Scientific Reports, 2016).
Like-named read-outs stand apart in the source and are kept apart here.

Tests used:
WT hDAT [1] = target: T1, WT hDAT (Homo sapiens, UniProt Q01959); experiment: Kinetic analysis of [3H]DA uptake in the presence or absence of PMA or BIM; assay type: cell-based; details: 30 min preincubation
T1 construct: Synthetic cDNA encoding hDAT subcloned into pcDNA3.1+; expressed in transfected cells; host or cells: PC12 cells (ATCC CRL-1721), transient transfection with pcDNA3.1+ plasmid, Lipofectamine 2000
T1 sequence (Q01959 whole entry): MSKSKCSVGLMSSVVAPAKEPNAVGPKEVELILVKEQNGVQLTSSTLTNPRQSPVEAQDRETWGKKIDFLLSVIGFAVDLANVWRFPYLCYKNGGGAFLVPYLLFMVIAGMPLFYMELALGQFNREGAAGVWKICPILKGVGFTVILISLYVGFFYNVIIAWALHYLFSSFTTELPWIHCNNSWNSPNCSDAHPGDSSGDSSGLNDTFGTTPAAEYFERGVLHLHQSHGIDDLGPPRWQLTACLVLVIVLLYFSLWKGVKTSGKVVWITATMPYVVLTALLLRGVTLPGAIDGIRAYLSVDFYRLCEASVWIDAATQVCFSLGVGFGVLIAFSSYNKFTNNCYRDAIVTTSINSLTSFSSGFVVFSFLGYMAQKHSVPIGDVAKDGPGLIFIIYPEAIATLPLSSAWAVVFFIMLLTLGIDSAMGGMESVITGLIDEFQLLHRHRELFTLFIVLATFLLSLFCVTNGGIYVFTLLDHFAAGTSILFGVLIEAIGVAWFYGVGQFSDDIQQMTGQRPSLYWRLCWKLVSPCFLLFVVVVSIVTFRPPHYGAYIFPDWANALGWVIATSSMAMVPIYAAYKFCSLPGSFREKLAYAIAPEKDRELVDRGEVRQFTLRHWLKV
Experimental: (§1) To determine whether H547A-induced increase in Vmax was mediated by a phosphorylation-dependent mechanism, kinetic analysis of [^3H]DA uptake was measured in the presence or absence of PKC activator PMA (Tocris, Bristol, UK) or PKC inhibitor BIM (Sigma-Aldrich, St. Louis, MO). The concentrations were chosen based on previous reports. In brief, intact PC12 cells transfected with WT or H547A-hDAT were preincubated with or without PMA or BIM (1 μM, final concentration) for 30 min at 37 °C or room temperature and then incubated with six concentrations of mixed [^3H]DA for 8 min as described above. Nonspecific uptake of each concentration of [^3H]DA (in the presence of 10 μM nomifensine) was subtracted from total uptake to calculate specific DAT-mediated uptake.

H547A-hDAT [2] = target: T2, H547A-hDAT (Homo sapiens, UniProt Q01959, H547A); experiment: as above; assay type: cell-based; details: 1 μM PMA, 30 min preincubation, 37 °C
T2 construct: Synthetic cDNA encoding hDAT subcloned into pcDNA3.1+; expressed in transfected cells; host or cells: PC12 cells (ATCC CRL-1721), transient transfection with pcDNA3.1+ plasmid
T2 sequence (Q01959 whole entry H547A): as the sequence (Q01959 whole entry) above, with H547A counted along it
Experimental: as §1

H547D-hDAT = target: T3, H547D-hDAT (Homo sapiens, UniProt Q01959, H547D); experiment: Inhibition of [3H]DA uptake in intact transfected PC12 cells; assay type: cell-based
T3 construct: Synthetic cDNA encoding hDAT subcloned into pcDNA3.1+; expressed in transfected cells; host or cells: PC12 cells (ATCC CRL-1721), transient transfection with pcDNA3.1+ plasmid
T3 sequence (Q01959 whole entry H547D): as the sequence (Q01959 whole entry) above, with H547D counted along it
Experimental: (§2) Cells were lysed in 500 μl of 1% SDS for an hour and radioactivity was measured using a liquid scintillation counter (model Tri-Carb 2900TR; PerkinElmer Life and Analytical Sciences, Waltham, MA). Vmax and Km were determined using Prism 5.0 (GraphPad Software Inc., San Diego, CA).
(§3) Results are presented as mean ± SEM, and n represents the number of independent experiments for each experiment group. Kinetic parameters (Vmax, Km, Bmax, and Kd) were determined from saturation curves by nonlinear regression analysis using a one-site model with variable slope. […] For experiments involving comparisons between unpaired samples, unpaired Student’s t test was used to assess any difference in the kinetic parameters (Vmax, Km, Bmax, Kd or IC50) between WT and mutant; log-transformed values of IC50, Km or Kd were used for the statistical comparisons. Significant differences between samples were analyzed with separate ANOVAs followed by post-hoc tests, as indicated in the results Section of each experiment. All statistical analyses were performed using IBM SPSS Statistics version 20, and differences were considered significant at p < 0.05.

WT hDAT [3] = target: T1, WT hDAT; experiment: as above; assay type: cell-based
Experimental: as §2, §3

H547A-hDAT [4] = target: T2, H547A-hDAT; assay type: cell-based
Experimental: as §2, §3

WT hDAT [5] = target: T1, WT hDAT; experiment: Competitive inhibition / modulation of [3H]WIN 35,428 binding in intact transfected PC12 cells
H547A-hDAT [6] = target: T2, H547A-hDAT; experiment: as above; details: Zn2+ 100 μM

## CN(C)CCCn1cc(C2=C(c3c[nH]c4ccccc34)C(=O)NC2=O)c2ccccc21 [BIM, bisindolylmaleimide-I]
WT hDAT [1]; 1 μM BIM
  increase in the Vmax of [3H]DA uptake relative to control: 98%

## CCCCCCCCCCCCCC(=O)O[C@@H]1[C@@H](C)[C@@]2(O)[C@@H](C=C(CO)C[C@]3(O)C(=O)C(C)=C[C@@H]23)[C@@H]2C(C)(C)[C@]12OC(C)=O [PMA, phorbol 12-myristate 13-acetate]
H547A-hDAT [2]
  decrease in the Vmax of [3H]DA uptake compared to control: 60%
WT hDAT [1]; 1 μM PMA, 37 °C
  decrease in the Vmax of [3H]DA uptake compared to control: 40%

## [Cl-].[Cl-].[Zn+2] [Zn^2+, ZnCl2]
H547D-hDAT; Zn2+ 10 μM
  decrease in [3H]DA uptake compared to control: 53%
H547D-hDAT; Zn2+ 100 μM
  decrease in [3H]DA uptake compared to control: 60%
WT hDAT [3]; Zn2+ 10 μM
  decrease in [3H]DA uptake compared to control: 25%
WT hDAT [3]; Zn2+ 100 μM
  decrease in [3H]DA uptake compared to control: 37%
H547A-hDAT [4]; Zn2+ 10 μM, not significant
  decrease in [3H]DA uptake compared to control: 10%
H547A-hDAT [4]; Zn2+ 100 μM
  decrease in [3H]DA uptake compared to control: 38%
WT hDAT [5]; Zn2+ 10 μM
  increase in [3H]WIN 35,428 binding: 80%
WT hDAT [5]; Zn2+ 100 μM
  increase in [3H]WIN 35,428 binding: 82%
H547A-hDAT [6]
  increase in [3H]WIN 35,428 binding: 27%
